Measured values taken from patent publication US9790207B2, “Pan-genomic inhibitors of NS5A protein encoded by HCV, pharmaceutical compositions, intermediates for inhibitor synthesis, and their synthesis and application methods” (priority 2015, dated 2017).
Where a name gives a salt, the structure may show the parent alone. Read-outs that look alike come from different tables or passages of the source.

Columns and labels:
HCV gT2a replicon = test: HCV replicon assay, gT2a; type: cell-based, Hepatitis C virus (HCV); conditions: Hepatitis C virus, GT2A, Huh-7; Huh7 replicon cells; mean
Description: (§1) The HCV replicon assay was used to determine the antiviral activity of compounds of general formula 2 (test compounds). The test cell line used in the HCV Replicon Assay was the human hepatoma cell line Huh7 incorporating the HCV replicons synthesized by an outside vendor.
(§2) 96-well plates were seeded with cells at a density of 7.5×10^3 cells per well in 50 μl of assay media. The compound stock solution was made up freshly in an assay medium (DMEM 1×, Cellgro; cat. #10-013-CV) as a 2× stock. A total of 11 serial 3-fold dilutions of test compounds were prepared from the 2× stock in the assay media ranging from 20 nM-0.2 pM final concentrations. At least 4 hours after seeding the cells, compound treatment was initiated by adding 50 μl of compound dilution to the plates. The final concentrations of compound therefore ranged from 10 nM to 0.1 pM when diluted 1:1 in culture media. The final DMSO concentration was 0.5%. Cells and inhibitors were incubated for 3 days at 37° C./5% CO2. The media was removed from the plates by gentle tapping. The cells were fixed with 100 μl 1:1 acetone:methanol for 1 minute, washed three times with PBS buffer, and then blocked with 150 μl/well 10% Fetal Bovine Serum (FBS) in PBS for 1 hour at room temperature. The cells were then washed three times with PBS buffer and incubated with 100 μl/well anti-hepatitis C core mAb (Affinity BioReagents; cat. # MA1-080, 1 mg/ml stock diluted 1:4,000 in 10% FBS-PBS) for 2 hours at 37° C. Then, the cells were washed three times with PBS and incubated with 100 μl/well HRP-Goat Anti-Mouse antibody (diluted 1:3.500 in 10% FBS-PBS) for 1 hour at 37° C. The cells were then washed three times with PBS and developed with an OPD solution, 100 μl/well (1 OPD tablet+12 ml citrate/phosphate buffer+5 μl 30% H2O2 per plate), for 30 minutes in the dark at room temperature. The reaction was stopped with 2N H2SO4 (100 μl/well), and the absorbance was measured at A490 X on a Victor^3 V 1420 multilabel counter (Perkin Elmer).

HCV gT5a replicon = test: HCV replicon assay, gT5a; type: cell-based, Hepatitis C virus (HCV); conditions: Hepatitis C virus, GT5A, Huh-7, read-out: gT5a, EC50 (pM) mean
Description: as §1, §2

[1] = Cytotoxicity, cell viability by ATPLite Kit; type: cell-based, human; conditions: human, Huh7 cells (human hepatoma cell line), 10% FBS, maximal inhibition, read-out: Cytotox gT1b 10% FBS max. inh.
Description: The cytotoxicity of the test compounds was studied in parallel using the same cell line, Huh7. Cell viability was determined using the ATPLite Kit (Perkin-Elmer, Boston, USA), according to manufacturer's instructions. 96-well black/transparent bottom plates were seeded with cells at a density of 7.5×10^3 cells per well in 50 μl medium. After 18 hours, compound treatment was initiated by adding 50 μl of compound dilution into the plates. Each compound dilution was tested in triplicates. The cells and inhibitors were then incubated for 96 hours at 37° C./5% CO2. The plates were washed twice with PBS (0.2 ml/well), and then lysed by adding lysis buffer, 0.05 ml/well (all reagents were included with the ATPLite Kit). After rocking for 5 min on a rocking platform, substrate buffer was added (0.05 ml/well). After additional 5-min incubation, the plates were kept in dark for 10 min, and the luminescence was read using TopCount NXT (Packard, Perkin Elmer). CC50 values for all test compounds were determined using XLfit 4.1 software (Table 2).

HCV gT3a replicon = test: HCV replicon assay, gT3a; type: cell-based, Hepatitis C virus (HCV); conditions: Hepatitis C virus, GT3A
Description: as §1, §2

HCV gT4a replicon = test: HCV replicon assay, gT4a; type: cell-based, Hepatitis C virus (HCV); conditions: Hepatitis C virus, GT4A, Huh-7, read-out: gT4a, EC50 (pM) mean
Description: as §1, §2

HCV gT1a replicon = test: HCV replicon assay, gT1a; type: cell-based, Hepatitis C virus (HCV); conditions: Hepatitis C virus, GT1A, Huh-7; Huh7 replicon cells; mean
Description: as §1, §2

HCV gT1b replicon = test: HCV replicon assay, gT1b; type: cell-based, Hepatitis C virus (HCV); conditions: Hepatitis C virus, GT1B, Huh-7, Huh7 replicon cells, mean value
Description: as §1, §2

[2] = Huh-7, Huh7 replicon cells, mean, read-out: gT3a, EC50 (pM) mean
[3] = 10% FBS, read-out: gT1b 10% FBS, EC50 (pM) mean
[4] = 40% NHS, read-out: gT1b 40% NHS, EC50 (pM) mean

Structure (SMILES)	EC50 (HCV gT2a replicon) [pM]	EC50 (HCV gT5a replicon) [pM]	inhibition at 96 h [1] [%]	EC50 (HCV gT3a replicon; [2]) [pM]	EC50 (HCV gT4a replicon) [pM]	EC50 (HCV gT1a replicon) [pM]	EC50 (HCV gT1b replicon; [3]) [pM]	EC50 (HCV gT1b replicon; [4]) [pM]	EC50 (HCV gT3a replicon; Huh-7, read-out: gT3a, EC50 (pM) mean, Huh7 replicon cells) [pM]
COC(=O)N[C@H](C(=O)N1CCC[C@H]1c1ncc(-c2cc(F)c(C#CC#Cc3cnc([C@@H]4CCCN4C(=O)[C@H](NC(=O)OC)c4ccccc4)[nH]3)c(-c3ccccc3)c2)[nH]1)C(C)C [2(17)•2HCl, [(S)-1-((S)-2-{5-[5-Fluoro-6-(4-{2-[(S)-1-((R)-2-methoxycarbonylamino-2-phenyl-acetyl)-pyrrolidin-2-yl]-3H-imidazol-4-yl}-buta-1,3-diynyl)-biphenyl-3-yl]-1H-imidazol-2-yl}-pyrrolidine-1-carbonyl)-2-methyl-propyl]-carbamic acid methyl ester dihydrochloride]	5	26	22	20.1	11.8	50.8	1.36	9.18	
COC(=O)N[C@H](C(=O)N1CCC[C@H]1c1ncc(-c2cc(C)c(C#CC#Cc3cnc([C@@H]4CCCN4C(=O)[C@H](NC(=O)OC)c4ccccc4)[nH]3)c(-c3ccccc3)c2)[nH]1)C(C)C [2(18)•2HCl, [(S)-1-((S)-2-{5-[6-(4-{2-[(S)-1-((R)-2-Methoxycarbonylamino-2-phenyl-acetyl)-pyrrolidin-2-yl]-3H-imidazol-4-yl}-buta-1,3-diynyl)-5-methyl-biphenyl-3-yl]-1H-imidazol-2-yl}-pyrrolidine-1-carbonyl)-2-methyl-propyl]-carbamic acid methyl ester dihydrochloride]	3	19.2	12	26	9.6	124	1.89	10.9	
COC(=O)N[C@H](C(=O)N1CCC[C@H]1c1ncc(-c2ccc(C#CC#Cc3cnc([C@@H]4CCCN4C(=O)[C@H](NC(=O)OC)c4ccccc4)[nH]3)c(Oc3ccccc3)c2)[nH]1)C(C)C [2(19)•2HCl, [(S)-1-((S)-2-{5-[4-(4-{2-[(S)-1-((R)-2-Methoxycarbonylamino-2-phenyl-acetyl)-pyrrolidin-2-yl]-3H-imidazol-4-yl}-buta-1,3-diynyl)-3-phenoxy-phenyl]-1H-imidazol-2-yl}-pyrrolidine-1-carbonyl)-2-methyl-propyl]-carbamic acid methyl ester dihydrochloride]	12.6	18.8	38		6	214	1.53	8.41	40.3
COC(=O)N[C@H](C(=O)N1CCC[C@H]1c1ncc(-c2ccc(C#CC#Cc3cnc([C@@H]4CCCN4C(=O)[C@H](NC(=O)OC)c4ccccc4)[nH]3)c(N(C)c3ccccc3)c2)[nH]1)C(C)C [2(21)•2HCl, [(S)-1-((S)-2-{5-[4-(4-{2-[(S)-1-((R)-2-Methoxycarbonylamino-2-phenyl-acetyl)-pyrrolidin-2-yl]-3H-imidazol-4-yl}-buta-1,3-diynyl)-3-(methyl-phenyl-amino)-phenyl]-1H-imidazol-2-yl}-pyrrolidine-1-carbonyl)-2-methyl-propyl]-carbamic acid methyl ester trihydrochloride]	10.6	26.6	14	35.1	11	72	1.79	14.2	
COC(=O)N[C@H](C(=O)N1CCC[C@H]1c1ncc(-c2ccc(-c3ccc(-c4cnc([C@@H]5CCCN5C(=O)[C@H](NC(=O)OC)c5ccccc5)[nH]4)cc3)c(-c3ccccc3)c2)[nH]1)C(C)C [2(22)•2HCl, ((S)-1-{(S)-2-[5-(4-{2-[(S)-1-((R)-2-Methoxycarbonylamino-2-phenyl-acetyl)-pyrrolidin-2-yl]-3H-imidazol-4-yl}-[1,1′;2′,1″]terphenyl-4′-yl)-1H-imidazol-2-yl]-pyrrolidine-1-carbonyl}-2-methyl-propyl)-carbamic acid methyl ester dihydrochloride]	3.9	31.3	30	16.6	9.4	117	2.58	38.8	
COC(=O)N[C@H](C(=O)N1CCC[C@H]1c1ncc(-c2ccc(-c3ccc(-c4cnc([C@@H]5CCCN5C(=O)[C@H](NC(=O)OC)c5ccccc5)[nH]4)cc3)c(Oc3ccccc3)c2)[nH]1)C(C)C [2(23)•2HCl, ((S)-1-{(S)-2-[5-(4′-{2-[(S)-1-((R)-2-Methoxycarbonylamino-2-phenyl-acetyl)-pyrrolidin-2-yl]-3H-imidazol-4-yl}-2-phenoxy-biphenyl-4-yl)-1H-imidazol-2-yl]-pyrrolidine-1-carbonyl}-2-methyl-propyl)-carbamic acid methyl ester dihydrochloride]	4.1	13.6	27	10.3	5.4	154	2.1	15.7	
COC(=O)N[C@H](C(=O)N1CCC[C@H]1c1ncc(-c2ccc(-c3ccc(-c4cnc([C@@H]5CCCN5C(=O)[C@H](NC(=O)OC)c5ccccc5)[nH]4)cc3)c(Sc3ccccc3)c2)[nH]1)C(C)C [2(24)•2HCl, ((S)-1-{(S)-2-[5-(4′-{2-[(S)-1-((R)-2-Methoxycarbonylamino-2-phenyl-acetyl)-pyrrolidin-2-yl]-3H-imidazol-4-yl}-2-phenylsulfanyl-biphenyl-4-yl)-1H-imidazol-2-yl]-pyrrolidine-1-carbonyl}-2-methyl-propyl)-carbamic acid methyl ester dihydrochloride]	4	21.6	42	28.5	8.3	557	1.33	8.02	
COC(=O)N[C@H](C(=O)N1CCC[C@H]1c1ncc(C#CC#Cc2ccc(-c3cnc([C@@H]4CCCN4C(=O)[C@H](NC(=O)OC)c4ccccc4)[nH]3)cc2-c2ccccc2)[nH]1)C(C)C [2(30)•2HCl, [(S)-1-((S)-2-{5-[4-(5-{2-[(S)-1-((R)-2-Methoxycarbonylamino-2-phenyl-acetyl)-pyrrolidin-2-yl]-3H-imidazol-4-yl}-biphenyl-2-yl)-buta-1,3-diynyl]-1H-imidazol-2-yl}-pyrrolidine-1-carbonyl)-2-methyl-propyl]-carbamic acid methyl ester dihydrochloride]			33				2.1	25.3	
